For four compounds, inhibition results are on record in ChEMBL document CHEMBL2390898, “Optimizing the control of apoptosis by amide/triazole isosteric substitution in a constrained peptoid” (Eur J Med Chem, 2013).

One assay deals with T1, Caspase-9 (Homo sapiens) (UniProt P55211).
T1 sequence (whole entry): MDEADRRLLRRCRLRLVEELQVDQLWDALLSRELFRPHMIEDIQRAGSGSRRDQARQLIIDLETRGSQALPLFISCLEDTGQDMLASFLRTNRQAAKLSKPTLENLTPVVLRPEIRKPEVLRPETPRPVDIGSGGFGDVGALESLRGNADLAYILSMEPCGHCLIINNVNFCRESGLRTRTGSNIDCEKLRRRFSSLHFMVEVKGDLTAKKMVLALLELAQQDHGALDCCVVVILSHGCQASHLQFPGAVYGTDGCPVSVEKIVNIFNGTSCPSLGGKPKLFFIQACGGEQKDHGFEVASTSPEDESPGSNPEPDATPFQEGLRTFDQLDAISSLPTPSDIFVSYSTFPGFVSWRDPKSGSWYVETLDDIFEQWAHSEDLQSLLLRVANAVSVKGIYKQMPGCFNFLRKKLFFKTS
The assay can be described thus: Inhibition of recombinant caspase-9 (unknown origin).

Assay [1] deals with T2, Apoptotic protease-activating factor 1 (Homo sapiens) (UniProt O14727).
T2 sequence (whole entry): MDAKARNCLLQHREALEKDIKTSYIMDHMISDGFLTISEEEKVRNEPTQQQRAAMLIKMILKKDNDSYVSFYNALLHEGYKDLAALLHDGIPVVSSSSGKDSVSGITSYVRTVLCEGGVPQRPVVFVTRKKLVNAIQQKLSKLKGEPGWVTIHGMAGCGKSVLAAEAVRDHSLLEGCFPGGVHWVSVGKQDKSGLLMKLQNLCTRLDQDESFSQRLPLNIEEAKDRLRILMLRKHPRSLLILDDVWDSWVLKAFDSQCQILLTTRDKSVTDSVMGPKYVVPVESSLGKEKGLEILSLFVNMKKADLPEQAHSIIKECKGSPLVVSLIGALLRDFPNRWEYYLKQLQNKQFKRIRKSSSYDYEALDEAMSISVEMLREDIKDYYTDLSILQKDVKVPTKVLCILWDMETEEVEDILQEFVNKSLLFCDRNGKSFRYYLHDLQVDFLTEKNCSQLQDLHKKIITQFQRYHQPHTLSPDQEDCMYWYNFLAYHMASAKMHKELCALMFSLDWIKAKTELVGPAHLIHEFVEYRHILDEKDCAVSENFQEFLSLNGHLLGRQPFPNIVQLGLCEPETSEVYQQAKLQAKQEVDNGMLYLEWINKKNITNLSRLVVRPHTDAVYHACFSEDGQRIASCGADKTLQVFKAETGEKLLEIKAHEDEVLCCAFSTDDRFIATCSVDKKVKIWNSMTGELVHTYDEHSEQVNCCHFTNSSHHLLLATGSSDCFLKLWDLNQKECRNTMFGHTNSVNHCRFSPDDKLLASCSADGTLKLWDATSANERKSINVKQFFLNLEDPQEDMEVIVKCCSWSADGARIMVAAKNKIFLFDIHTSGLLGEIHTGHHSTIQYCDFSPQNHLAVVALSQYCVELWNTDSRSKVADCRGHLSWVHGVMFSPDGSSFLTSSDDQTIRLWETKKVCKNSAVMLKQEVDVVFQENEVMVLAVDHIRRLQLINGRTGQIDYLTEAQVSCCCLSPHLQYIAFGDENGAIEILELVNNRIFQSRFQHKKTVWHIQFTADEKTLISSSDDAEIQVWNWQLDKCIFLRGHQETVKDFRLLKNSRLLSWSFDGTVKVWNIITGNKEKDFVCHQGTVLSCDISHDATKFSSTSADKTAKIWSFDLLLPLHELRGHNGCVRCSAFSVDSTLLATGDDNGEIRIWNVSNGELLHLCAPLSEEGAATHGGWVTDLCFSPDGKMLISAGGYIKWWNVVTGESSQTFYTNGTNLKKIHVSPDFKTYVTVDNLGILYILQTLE
The assay can be described thus: Binding affinity to Apaf1 (unknown origin) assessed as inhibition of procaspase-9 activity.

Calls of active or inactive are those of the source. The rule behind the calls is not given here.

Take `O=C1C(c2cnnn2CCc2ccc(Cl)cc2Cl)N(CCC(c2ccccc2)c2ccccc2)C(=O)CN1CCc1ccc(Cl)cc1Cl` (racemic): the inhibition entry at Caspase-9 (Homo sapiens) is “inactive”. Further, in assay [1], the inhibition result was “Active”.
Taken in the same sequence, the figures for `NC(=O)CN(CCc1ccc(Cl)cc1Cl)C(=O)CC1C(=O)N(CCc2ccc(Cl)cc2Cl)CC(=O)N1CCC(c1ccccc1)c1ccccc1` (racemic) were “inactive” and “Active”.
Taken in the same sequence, the figures for `O=C1C(c2cn(CCc3ccc(Cl)cc3Cl)nn2)N(CCC(c2ccccc2)c2ccccc2)C(=O)CN1CCc1ccc(Cl)cc1Cl` (stereo not drawn) were “inactive” and “Active”.
Take `O=C1CC(C(=O)NCCc2ccc(Cl)cc2Cl)(c2cnn(CCc3ccc(Cl)cc3Cl)n2)N1CCC(c1ccccc1)c1ccccc1` (racemic): on Caspase-9 (Homo sapiens), the inhibition entry is “inactive”. Besides, the inhibition entry in assay [1] is “Active”.
